Results taken from patent publication EP1020434A1, “3-AMIDINOANILINE DERIVATIVES, ACTIVATED BLOOD COAGULATION FACTOR X INHIBITORS, AND INTERMEDIATES FOR PRODUCING BOTH” (priority 1997, dated 1999).
Counter-ions that a name gives are not always drawn. Like-named read-outs stand apart in the source and are kept apart here.

Assays:
[1] = biological target: T1, human activated blood coagulation factor X (Homo sapiens, UniProt P00742); experiment: Measurement of inhibitory activity for activated blood coagulation factor X (chromogenic substrate S-2222); format: biochemical
T1 construct: purchased Calbiochem Corporation
T1 sequence (P00742 235-488 limits assumed): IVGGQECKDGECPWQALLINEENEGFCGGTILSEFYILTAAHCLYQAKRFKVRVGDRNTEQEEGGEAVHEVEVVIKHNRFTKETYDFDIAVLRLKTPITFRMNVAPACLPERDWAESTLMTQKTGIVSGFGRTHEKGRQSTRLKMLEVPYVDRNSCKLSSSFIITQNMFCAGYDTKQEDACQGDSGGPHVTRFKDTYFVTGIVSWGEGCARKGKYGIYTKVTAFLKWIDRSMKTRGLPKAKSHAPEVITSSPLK
T1 sequence (P00742 41-179 partner limits assumed): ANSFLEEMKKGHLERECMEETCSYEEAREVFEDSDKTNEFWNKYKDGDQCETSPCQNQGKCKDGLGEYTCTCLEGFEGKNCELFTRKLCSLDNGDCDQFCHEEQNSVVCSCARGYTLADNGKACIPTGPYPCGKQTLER
Description: Measurement of inhibitory activity for activated blood coagulation factor X
(§1) Five µl of dimethylsulfoxide solution of test compound, 375 µl of tris-hydrochloric acid buffer (pH 8.4) and 100 µl of 1 mM S-2222 (Daiichi Pure Chemicals) aqueous solution were mixed. Then 20 µl of 0.6 U/ml human activated blood coagulation factor X (Calbiochem Corporation) in gelatin-glycine buffer was added and the mixture was incubated for 10 minutes at 37 °C. The reaction was terminated with the addition of 100 µl of 60 % acetic acid and absorbance (405 nm) was measured.
The group without the test compound was defined as control and the group without human activated blood coagulation factor X was defined as blank.

[2] = biological target: T2, human thrombin (Homo sapiens, UniProt P00734); experiment: Measurement of inhibitory activity for thrombin (chromogenic substrate S-2238); format: biochemical
T2 construct: human thrombin (Sigma Chemical Company); purchased Sigma Chemical Company
Description: Measurement of inhibitory activity for thrombin
as §1, with “S-2238” for “S-2222”, “2.0” for “0.6”, “thrombin (Sigma Chemical Company)” for “activated blood coagulation factor X (Calbiochem Corporation)”
The group without the test compound was defined as control and the group without human thrombin was defined as blank. […]

[3] = system: normal human plasma; experiment: Measurement of anticoagulation effects (plasma prothrombin time); format: biochemical; details: CT2, concentration that prolonged the clotting time (prothrombin time) of control by 2 times
Description: Measurement of anticoagulation effects (plasma prothrombin time)
Two µl of dimethylsulfoxide solution of test compound which was put in a process tube was incubated at 37 °C, and 50 µl of normal human plasma (George King Bio-Medical Inc.) was mixed. One minute later, 100 µl of plasma prothrombin time reagent (Neoplastin Plus®, Boehringer Mannheim) was added into the mixture. Prothrombin time was measured with ST4 (Boehringer Mannheim).
The group without the test compound was defined as control. The concentration of test compound that prolonged the clotting time of control by 2 times (CT2) was obtained and this value was used as the index of anticoagulation activity.

[4] = system: Male Wistar rats; experiment: Acute toxicity test; format: in vivo
Description: Male Wistar rats aged 7 weeks (SLC) were divided into several groups consisting of 5 rats. The test compound was dissolved at the concentration that became the administration volume as 2.5 ml/kg. The solution was administered through the tail vein at an infusion rate of 1 ml/minute. Observations were performed at constant intervals, and survival rate was judged for 24 hours.

[5] = IC50, concentration showing 50 % inhibition of control, 10 minutes at 37 °C, pH 8.4, read-out: Inhibitory activity for activated blood coagulation factor X
[6] = IC50, concentration showing 50 % inhibition of control, 10 minutes at 37 °C, pH 8.4, read-out: Inhibitory activity for thrombin

| SMILES | IC50 [1, 5] [µM] | IC50 [2, 6] [µM] | Anticoagulation effect [3] [µM] | IC50 [1] [µM] | IC50 [2] [µM] | Death case ([4]; 30 mg/kg through the tail vein, groups of 5 rats, survival judged for 24 hours) | death in acute toxicity test ([4]; rats, intravenous administration, dose of 30 mg/kg) |
| --- | --- | --- | --- | --- | --- | --- | --- |
| CC(C)=CCN(CC(=O)Nc1ccc(OC(C)C)cc1)c1cccc(C(=N)N)c1.Cl [Compound 22, 2-[N-(3-Amidinophenyl)-N-(3-methyl-2-butenyl)amino]-N-(4-isopropoxyphenyl)acetamide hydrochloride] | 0.015 | 13 | 0.29 |  |  |  |  |
| CC(=N)N1CCC(Oc2ccc(NC(=O)CN(Cc3ccccc3)c3cccc(C(=N)N)c3)cc2)CC1 [Compound 58, 2-[N-(3-Amidinophenyl)-N-benzylaminol-N-[4-[1-(1-imino-ethyl)piperidin-4-yloxy]phenyl]acetamidedihydrochloride] |  |  | 0.24 | 0.042 | 100 |  |  |
| CC(=N)N1CCC(c2ccc(NC(=O)CN(Cc3cccc(OCC(=O)O)c3)c3cccc(C(=N)N)c3)cc2)CC1.Cl.Cl [Compound 62, 2-[N-(3-Amidinophenyl)-N-(3-carboxymethyloxybenzyl)amino]-N-[4-[1-(1-iminoethyl)piperidin-4-yl]phenyl]acetamide dihydrochloride] |  | 206 | 0.21 |  |  | 0/5 | no death was observed |

The next lines start with results.

| IC50 [1, 5] [µM] | IC50 [2, 6] [µM] | SMILES | Anticoagulation effect [3] [µM] | IC50 [1] [µM] | IC50 [2] [µM] | Death case ([4]; 30 mg/kg through the tail vein, groups of 5 rats, survival judged for 24 hours) | death in acute toxicity test ([4]; rats, intravenous administration, dose of 30 mg/kg) |
| --- | --- | --- | --- | --- | --- | --- | --- |
| 0.096 | 308 | CC(=N)N1CCC(Oc2ccc(NC(=O)CNc3cccc(C(=N)N)c3)cc2)CC1 [Compound 79, 2-(3-Amidinophenylamino)-N-[4-[1-(1-iminoethyl)piperidin-4-yloxy]phenyl]acetamide dihydrochloride] |  |  |  |  |  |
| 0.019 | 177 | CC(=N)N1CCC(c2ccc(NC(=O)CN(Cc3nc[nH]c3C)c3cccc(C(=N)N)c3)cc2)CC1.Cl.Cl [Compound 74, 2-[N-(3-Amidinophenyl)-N-(5-methylimidazol-4-ylmethyl)amino]-N-[4-[1-(1-iminoethyl)piperidin-4-yl]phenyl]acetamide dihydrochloride] | 0.30 |  |  |  |  |
| 0.004 | 15 | CC(=N)N1CCC(c2ccc(NC(=O)CN(CC=C(C)C)c3cccc(C(=N)N)c3)cc2)CC1.Cl.Cl [Compound 55, 2-[N-(3-Amidinophenyl)-N-(3-methyl-2-butenyl)amino]-N-[4-[1-(1-iminoethyl)piperidin-4-yl]phenyl]acetamide dihydrochloride] | 0.091 |  |  |  |  |
| 0.016 | 77 | CC(=N)N1CCC(c2ccc(NC(=O)CN(Cc3cccc(O)c3)c3cccc(C(=N)N)c3)cc2)CC1.Cl.Cl [Compound 52, 2-[N-(3-Amidinophenyl)-N-(3-hydroxybenzyl)amino]-N-[4-[1-(1-iminoethyl)piperidin-4-yl]phenyl]acetamide dihydrochloride] | 0.17 |  |  |  |  |
| 0.008 | 42 | CC(=N)N1CCC(c2ccc(NC(=O)CN(Cc3cccc4ccccc34)c3cccc(C(=N)N)c3)cc2)CC1 [Compound 65, 2-[N-(3-Amidinophenyl)-N-(1-naphthylmethyl)amino]-N-[4-[1-(1-iminoethyl)piperidin-4-yl]phenyl]acetamide dihydrochloride] |  |  |  |  |  |
